The source made the active and inactive calls. No cut-off for these calls is given here.
Columns and labels:
N2a [1] = test: Neuritogenic activity in mouse Neuro2a cells assessed as morphological changes at 3 ug/mL after 24 or 48 hrs; type: functional, cell-based
N2a [2] = test: Neuritogenic activity in mouse Neuro2a cells assessed as morphological changes at 1 ug/mL after 24 or 48 hrs; type: functional, cell-based

Row | Compound | Activity (N2a [1]) | Activity (N2a [2])
1 | COc1cccc2c1C(=O)c1c(O)c3c(c(O)c1C2=O)C[C@@](O)(C(=O)CO)C[C@@H]3O[C@H]1C[C@H](N)[C@H](O)[C@H](C)O1 | inactive | 
2 | C[C@@H]1O[C@@H](Oc2cccc3c2C(=O)c2c(O)c4c(c(O)c2C3=O)C[C@](C)(O)C[C@@H]4O)[C@@H](O)[C@H](N(C)C)[C@@H]1O |  | Active

From ChEMBL document CHEMBL1147238, “Komodoquinone A, a novel neuritogenic anthracycline, from marine Streptomyces sp. KS3” (J Nat Prod, 2003)
